Measured values taken from ChEMBL document CHEMBL1138958, “Opioid receptor binding and antinociceptive activity of the analogues of endomorphin-2 and morphiceptin with phenylalanine mimics in the position 3 or 4” (Bioorg Med Chem Lett, 2006).
pKi: −log10 of the molar value. Where a SMILES comes first, the peptide text is derived from it. [ ]: non-standard residue; d: D form. hPhe = N[C@@H](CCc1ccccc1)C(=O)O

biological target: Mu-type opioid receptor (Rattus norvegicus, UniProt P33535); assay: Displacement of [3H]DAMGO from mu opioid receptor in Wistar rat brain
Sequence (P33535 whole entry): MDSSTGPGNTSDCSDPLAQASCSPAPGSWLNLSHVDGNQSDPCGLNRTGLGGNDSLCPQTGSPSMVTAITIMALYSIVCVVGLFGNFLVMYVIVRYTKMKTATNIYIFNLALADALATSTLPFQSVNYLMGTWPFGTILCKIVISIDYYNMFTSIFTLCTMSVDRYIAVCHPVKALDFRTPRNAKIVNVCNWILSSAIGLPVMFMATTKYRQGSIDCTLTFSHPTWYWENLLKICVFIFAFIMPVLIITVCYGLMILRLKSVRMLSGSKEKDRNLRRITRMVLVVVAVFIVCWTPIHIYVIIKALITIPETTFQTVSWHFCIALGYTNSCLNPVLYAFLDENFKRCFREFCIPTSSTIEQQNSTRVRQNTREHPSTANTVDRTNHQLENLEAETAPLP

Row | Structure (SMILES) | pKi
1 | NC(=O)[C@H](Cc1ccccc1)NC(=O)[C@H](NC(=O)[C@@H]1CCCN1C(=O)[C@@H](N)Cc1ccc(O)cc1)c1ccccc1 | 5.87
2 | NC(=O)[C@@H](NC(=O)[C@H](Cc1ccccc1)NC(=O)[C@@H]1CCCN1C(=O)[C@@H](N)Cc1ccc(O)cc1)c1ccccc1 | 7.57
3 | NC(=O)[C@H](NC(=O)[C@H](Cc1ccccc1)NC(=O)[C@@H]1CCCN1C(=O)[C@@H](N)Cc1ccc(O)cc1)c1ccccc1 | 6.67
4 | NC(=O)[C@H](Cc1ccccc1)NC(=O)[C@H](CCc1ccccc1)NC(=O)[C@@H]1CCCN1C(=O)[C@@H](N)Cc1ccc(O)cc1 | 7.55
5 | NC(=O)[C@@H]1CCCN1C(=O)[C@H](CCc1ccccc1)NC(=O)[C@@H]1CCCN1C(=O)[C@@H](N)Cc1ccc(O)cc1 (H-YP[hPhe]P-NH2) | 6.23
6 | NC(=O)[C@H](CCc1ccccc1)NC(=O)[C@H](Cc1ccccc1)NC(=O)[C@@H]1CCCN1C(=O)[C@@H](N)Cc1ccc(O)cc1 | 7.13
7 | NC(=O)[C@H](Cc1ccccc1)NC(=O)[C@@H](NC(=O)[C@@H]1CCCN1C(=O)[C@@H](N)Cc1ccc(O)cc1)c1ccccc1 | 6.57
8 | NC(=O)[C@@H]1CCCN1C(=O)[C@H](Cc1ccccc1)NC(=O)[C@@H]1CCCN1C(=O)[C@@H](N)Cc1ccc(O)cc1 [MORPHICEPTIN] (H-YPFP-NH2) | 6.87

tested on: Mus musculus; assay: Antinociceptive activity in mouse at 4ul, icv by hot plate test assessed as area under %MPE - time curve after 45 mins; assay type: functional

Row | Structure (SMILES) | Activity [%]
9 | NC(=O)[C@@H](NC(=O)[C@H](Cc1ccccc1)NC(=O)[C@@H]1CCCN1C(=O)[C@@H](N)Cc1ccc(O)cc1)c1ccccc1 | 35.5
10 | NC(=O)[C@H](Cc1ccccc1)NC(=O)[C@H](CCc1ccccc1)NC(=O)[C@@H]1CCCN1C(=O)[C@@H](N)Cc1ccc(O)cc1 | 38.2

biological target: Delta-type opioid receptor (Rattus norvegicus, UniProt P33533); assay: Displacement of [3H]DPDPE from delta opioid receptor in Wistar rat brain
Sequence (P33533 whole entry): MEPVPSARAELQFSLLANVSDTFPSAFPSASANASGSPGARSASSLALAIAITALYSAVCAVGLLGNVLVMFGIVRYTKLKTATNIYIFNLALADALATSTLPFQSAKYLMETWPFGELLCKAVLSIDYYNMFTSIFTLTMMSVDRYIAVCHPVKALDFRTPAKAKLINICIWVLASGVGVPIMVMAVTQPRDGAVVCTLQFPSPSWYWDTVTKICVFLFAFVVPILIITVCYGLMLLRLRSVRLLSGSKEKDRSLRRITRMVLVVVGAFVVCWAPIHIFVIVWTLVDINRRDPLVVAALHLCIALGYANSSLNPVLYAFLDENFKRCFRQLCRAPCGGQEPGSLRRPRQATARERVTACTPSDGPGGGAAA

Row | Structure (SMILES) | pKi
11 | NC(=O)[C@H](Cc1ccccc1)NC(=O)[C@H](NC(=O)[C@@H]1CCCN1C(=O)[C@@H](N)Cc1ccc(O)cc1)c1ccccc1 | 5.68
12 | NC(=O)[C@@H](NC(=O)[C@H](Cc1ccccc1)NC(=O)[C@@H]1CCCN1C(=O)[C@@H](N)Cc1ccc(O)cc1)c1ccccc1 | < 5.00
13 | NC(=O)[C@H](NC(=O)[C@H](Cc1ccccc1)NC(=O)[C@@H]1CCCN1C(=O)[C@@H](N)Cc1ccc(O)cc1)c1ccccc1 | < 5.00
14 | NC(=O)[C@H](Cc1ccccc1)NC(=O)[C@H](CCc1ccccc1)NC(=O)[C@@H]1CCCN1C(=O)[C@@H](N)Cc1ccc(O)cc1 | < 5.00
15 | NC(=O)[C@@H]1CCCN1C(=O)[C@H](NC(=O)[C@@H]1CCCN1C(=O)[C@@H](N)Cc1ccc(O)cc1)c1ccccc1 | < 5.00
16 | NC(=O)[C@@H]1CCCN1C(=O)[C@H](CCc1ccccc1)NC(=O)[C@@H]1CCCN1C(=O)[C@@H](N)Cc1ccc(O)cc1 (H-YP[hPhe]P-NH2) | < 5.00
17 | NC(=O)[C@H](CCc1ccccc1)NC(=O)[C@H](Cc1ccccc1)NC(=O)[C@@H]1CCCN1C(=O)[C@@H](N)Cc1ccc(O)cc1 | < 5.00
18 | NC(=O)[C@H](Cc1ccccc1)NC(=O)[C@@H](NC(=O)[C@@H]1CCCN1C(=O)[C@@H](N)Cc1ccc(O)cc1)c1ccccc1 | < 5.00
19 | NC(=O)[C@@H]1CCCN1C(=O)[C@@H](NC(=O)[C@@H]1CCCN1C(=O)[C@@H](N)Cc1ccc(O)cc1)c1ccccc1 | < 5.00
20 | NC(=O)[C@@H]1CCCN1C(=O)[C@H](Cc1ccccc1)NC(=O)[C@@H]1CCCN1C(=O)[C@@H](N)Cc1ccc(O)cc1 [MORPHICEPTIN] (H-YPFP-NH2) | < 5.00

tested on: Mus musculus; assay: Antinociceptive activity in mouse at 4 ul, icv by hot plate test assessed as area under %MPE - time curve after 15 mins; assay type: functional

Row | Structure (SMILES) | Activity [%]
21 | NC(=O)[C@@H](NC(=O)[C@H](Cc1ccccc1)NC(=O)[C@@H]1CCCN1C(=O)[C@@H](N)Cc1ccc(O)cc1)c1ccccc1 | 54.2
22 | NC(=O)[C@H](Cc1ccccc1)NC(=O)[C@H](CCc1ccccc1)NC(=O)[C@@H]1CCCN1C(=O)[C@@H](N)Cc1ccc(O)cc1 | 67.5
23 | NC(=O)[C@H](Cc1ccccc1)NC(=O)[C@H](Cc1ccccc1)NC(=O)[C@@H]1CCCN1C(=O)[C@@H](N)Cc1ccc(O)cc1 [ENDOMORPHIN 2] | 40.1

tested on: not listed separately; assay: Half life in mouse brain at 10 ul; assay type: ADME, organism-based

Row | Structure (SMILES) | half-life [min]
24 | NC(=O)[C@@H](NC(=O)[C@H](Cc1ccccc1)NC(=O)[C@@H]1CCCN1C(=O)[C@@H](N)Cc1ccc(O)cc1)c1ccccc1 | 24.1
25 | NC(=O)[C@H](Cc1ccccc1)NC(=O)[C@H](CCc1ccccc1)NC(=O)[C@@H]1CCCN1C(=O)[C@@H](N)Cc1ccc(O)cc1 | 32.5
26 | NC(=O)[C@H](Cc1ccccc1)NC(=O)[C@H](Cc1ccccc1)NC(=O)[C@@H]1CCCN1C(=O)[C@@H](N)Cc1ccc(O)cc1 [ENDOMORPHIN 2] | 19.7

biological target: Mu-type opioid receptor (Rattus norvegicus) (UniProt P33535); assay: Decrease of maximum binding of [3H]DAMGO to mu opioid receptor in Wistar rat brain at 10000 nm; design: scale not given: the % may be the effect or the level left
Sequence (P33535 whole entry): as the sequence (P33535 whole entry) above

Row | Structure (SMILES) | Activity [%]
27 | NC(=O)[C@@H]1CCCN1C(=O)[C@H](NC(=O)[C@@H]1CCCN1C(=O)[C@@H](N)Cc1ccc(O)cc1)c1ccccc1 | 24.5

tested on: Mus musculus; assay: Antinociceptive activity in mouse at 4ul, icv by hot plate test assessed as area under %MPE - time curve after 30 mins; assay type: functional

Row | Structure (SMILES) | Activity [%]
28 | NC(=O)[C@@H](NC(=O)[C@H](Cc1ccccc1)NC(=O)[C@@H]1CCCN1C(=O)[C@@H](N)Cc1ccc(O)cc1)c1ccccc1 | 42.2
29 | NC(=O)[C@H](Cc1ccccc1)NC(=O)[C@H](CCc1ccccc1)NC(=O)[C@@H]1CCCN1C(=O)[C@@H](N)Cc1ccc(O)cc1 | 50
30 | NC(=O)[C@H](Cc1ccccc1)NC(=O)[C@H](Cc1ccccc1)NC(=O)[C@@H]1CCCN1C(=O)[C@@H](N)Cc1ccc(O)cc1 [ENDOMORPHIN 2] | 34.8
